# Literature values, collected in patent US9272037B2, “Method to treat premature ejaculation in humans” (priority 2005, dated 2016).
# Experiments:
# [1] = for accumulation during multiple dose treatment: multiple dose treatment with tramadol
# [2] = oral, Viagra formulation
# [3] = molecular target: phosphodiesterase type 5 (PDE5) (Homo sapiens, UniProt O76074); conditions: PDE5 versus PDE6
# [4] = test system: humans
# [5] = test system: child; conditions: inadvertent administration of 4 mg/kg to a child
# [6] = molecular target: μ-opiate receptors (Homo sapiens, UniProt P35372)
# Sequence of μ-opiate receptors (P35372 whole entry): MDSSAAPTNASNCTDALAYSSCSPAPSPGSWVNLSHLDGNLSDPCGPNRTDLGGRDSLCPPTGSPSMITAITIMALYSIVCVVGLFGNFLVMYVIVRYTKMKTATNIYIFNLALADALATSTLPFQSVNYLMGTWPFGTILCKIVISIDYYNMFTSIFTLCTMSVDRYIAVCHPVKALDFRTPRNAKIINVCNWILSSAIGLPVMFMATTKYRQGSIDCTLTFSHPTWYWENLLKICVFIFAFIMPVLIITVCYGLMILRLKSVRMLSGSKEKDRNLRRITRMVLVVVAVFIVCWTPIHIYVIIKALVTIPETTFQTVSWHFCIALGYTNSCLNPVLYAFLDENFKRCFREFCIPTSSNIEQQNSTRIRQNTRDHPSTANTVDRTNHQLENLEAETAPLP
# [7] = single oral dose of tramadol 100 mg
structure (smiles),measurement,setting,value
"CN(C)C[C@H]1CCCC[C@]1(O)c1cccc(O)c1 [O-desmethyltramadol (M1), O-desmethyltramadol]",accumulation during multiple dose treatment,[1],approximately 2 fold
same,half-life,[1]; single oral dose of 100 mg tramadol,9 h
"CCCc1nn(C)c2c(=O)[nH]c(-c3cc(S(=O)(=O)N4CCN(C)CC4)ccc3OCC)nc12 [sildenafil, 1-[[3-(6,7-dihydro-1-methyl-7-oxo-3-propyl-1H-pyrazolo[4,3-d]pyrimidin-5-yl)-4-ethoxyphenyl]sulfonyl]-4-methyl piperazine]",absolute bioavailability,[2],about 40%
same,potency for PDE5 compared to PDE6,[3],about 10 fold
"Cn1c(=O)c2c(ncn2C)n(C)c1=O [caffeine, 3,7-dihydro-1,3,7-trimethyl-1H-purine-2,6-dione]",time to maximal plasma concentrations,"after oral, rectal or parenteral administration",≤ 1 h
same,half-life in plasma,in vivo,3 to 7 h
same,amount needed to affect sleep significantly,[4],more than 200 mg
"COc1cccc(C2(O)CCCCC2CN(C)C)c1 (racemic) [tramadol, (+/−)-trans (RR,SS)-2-[(di-methylamino)methyl]-1-(3-methoxyphenyl)cyclohexanol]",accumulation during multiple dose treatment,[1],approximately 2 fold
same,time to peak serum concentrations,[1]; oral administration,≤ 2 h
same,adverse event after overdose,[5],seizure activity
same,"affinity for μ-opiate receptors, fold less than codeine",[6]; versus codeine,10 fold
same,"affinity for μ-opiate receptors, fold less than d-propoxyphene",[6]; versus d-propoxyphene,100 fold
same,affinity for μ-opiate receptors relative to dextromethorphan,[6]; versus dextromethorphan,equivalent to dextromethorphan
same,"affinity for μ-opiate receptors, fold less than morphine",[6]; versus morphine,"6,000 fold"
same,duration of the analgesic effect,[7],about 6 hours
